This note sets out measurements from US20230027059A1, “METHODS AND COMPOSITIONS FOR GENERATING HUMAN MIDBRAIN NEURAL PROGENITOR CELLS” (Trallhead Biosystems Inc., priority 2021, published 2023).

Assay [1] has as its system stage 1 neural stem cells. As to the kind of experiment: First 12-factor HD-DoE experiment, stage 2: additional 3 days after stage 1, gene expression modeled, with dynamic profile and factor criticality analysis. Type of assay: cell-based, human. The settings on record: for FOXA2 expression level in absence of the factor / LMX1A expression level in absence of the factor: stage 2 recipe, first experiment model; for FOXA2 expression level in absence of the factor: 10,000 with all factors; for LMX1A expression level in absence of the factor: 30,000 with all factors. The method, then: To develop the recipe for each stage, the impact of agonists and antagonists of multiple signaling pathways (referred to herein as “effectors”) on the expression of two sets of 53 pre-selected genes after a 3-day treatment was tested and modeled. These effectors are small molecules or proteins that are commonly used during stepwise differentiation of stem cells to specific fates. The choice of the effectors to test was based on current literature on neural induction in the midbrain region of the developing brain and differentiation of stem cells to neural progenitors. To test the effectors, experiments with at least 8 factors were designed that can assess the response of cells to 48 or more different combinations of effectors in a range of concentrations. To analyze the models, we focused on expression of genes expressed in the midbrain region, including OTX2, DMBX1, FOXA2, LMX1A, and on the absence of GB X2, which is a hindbrain marker. The impact of each effector on gene expression level is defined by a parameter called factor contribution that is calculated for each effector during the modeling. To further guide the differentiation of midbrain-committed neural stem cells to neural progenitor cells at stage 2, we performed an additional HD-DoE experiment. We thereby obtained additional gene regulatory models that were used for preparation of differentiation protocol. The basis of this was a 12-factor HD-DoE experiment with focus on initiation of differentiation of cells toward midbrain neural progenitor cells for an additional 3 days after termination of stage 1 treatment. Here, we focused on expression of LMX1A and FOXA2 in neural progenitor cells with low to zero expression of GBX2. LMX1A had significant high expression level in the model with value of 47888. Therefore, we used optimization setting for this gene to identify the positive factors. The factors in this experiment included SC79, MK2206, ZM336372, PD0325901, CHIR99021, A 83-01, TTNPB, AGN193109, GW3965, SR9243, Purmorphamine and GSI-XX. […] Therefore, we used dynamic profile analysis to adjust the recipe for optimized expression of both LMX1A and FOXA2 genes and minimum expression of GBX2 (FIG. 7). It was observed that even without addition of Purmorphamine, expression level of FOXA2 was at 5000, therefore inclusion of this effector is not essential, however it can improve expression of FOXA2. […] A 83-01 was another factor with opposite effect on FOXA2 and LMX1A that was included in the final recipe. […] To assess the impact of elimination of each validated factor, we used dynamic profile analysis and compared the expression level of genes of interest in absence of each finalized factor while others are present. […] In the stage 2 recipe, each of the six finalized factors were removed while the other five factors were present and the expression levels of FOXA2, LMX1A and GBX2 were assessed, compared to the levels in the presence of all factors. According to the first experiment model, the absence of TTNPB lead to a rise of GBX2 expression, while the value of FOXA2 and LMX1A reduced drastically from 10,000 to 0 and 30,000 to 15,000, respectively. The absence of A 83-01 reduced the expression of FOXA2 from 10,000 to 7000, however, as expected, the value of LMX1A increased from 30,000 to 40,000. […] According to the second experiment model, the absence of BMP7 and MK2206 both reduced the level of FOXA2 while increasing the value of LMX1A, with BMP7 as the main effector that led to 0 expression of FOXA2.

Assay [2] concerns stage 1 neural stem cells. As to the kind of experiment: Second 12-factor HD-DoE experiment, stage 2: hiPSCs in stage 1 media 3 days, then 96 factor combinations for 3 days, with dynamic profile and factor criticality analysis. Type of assay: cell-based, human. The settings on record: for FOXA2 expression level in absence of the factor / LMX1A expression level in absence of the factor: stage 2 recipe, second experiment model; for LMX1A expression level in absence of the factor: 4000 with all factors; for impact on expression of GBX2: stage 2, second 12-factor experiment, dynamic profile; for factor contribution: negative impact. The method, then: To test additional factors like FGF8 that is routinely used in midbrain differentiation protocols, we ran another 12-factor experiment consisting of LDN193189, BMP7, A 83-01, Activin A, Takinib, PD0325901, MK2206, FGF8b, AZD3147, MHY1485, GSI-XX and Yhhu 3792. Similar to the previous experiment, hiPSCs were treated with stage 1 media for 3 days and then treated with 96 conditions of combinations of the factors for an additional 3 days. When this model was optimized for maximum expression of FOXA2, BMP7 with factor contribution of 13.7 and MK2206 with 14.2 had the most impact on its expression followed by AZD 3147 with factor contribution of 10.9. […] Another difference was BMP7, which has a negative impact on LMX1A. However, the factor contribution is less than 10. Therefore, to evaluate the effect of interactions between the factors and the optimal condition for the expression of both FOXA2 and LMX1A, we used dynamic profile analysis (FIG. 10). […] To assess the impact of elimination of each validated factor, we used dynamic profile analysis and compared the expression level of genes of interest in absence of each finalized factor while others are present. […] In the stage 2 recipe, each of the six finalized factors were removed while the other five factors were present and the expression levels of FOXA2, LMX1A and GBX2 were assessed, compared to the levels in the presence of all factors. According to the first experiment model, the absence of TTNPB lead to a rise of GBX2 expression, while the value of FOXA2 and LMX1A reduced drastically from 10,000 to 0 and 30,000 to 15,000, respectively. The absence of A 83-01 reduced the expression of FOXA2 from 10,000 to 7000, however, as expected, the value of LMX1A increased from 30,000 to 40,000. […] According to the second experiment model, the absence of BMP7 and MK2206 both reduced the level of FOXA2 while increasing the value of LMX1A, with BMP7 as the main effector that led to 0 expression of FOXA2.

Assay [3] relates to human pluripotent stem cells. In words: 13-factor HD-DoE experiment, stage 1: 3-day effector treatment, gene expression modeled, with dynamic profile and factor criticality analysis. Type of assay: cell-based. The following applies: for LMX1A expression level in absence of the factor / FOXA2 expression level in absence of the factor / DMBX1 expression level in absence of the factor / OTX2 expression level in absence of the factor: stage 1 recipe, other four factors present; for LMX1A expression level in absence of the factor: 300 with all five factors; for FOXA2 expression level in absence of the factor: 600 with all five factors; for DMBX1 expression level in absence of the factor: 3000 with all five factors; for OTX2 expression level in absence of the factor: 12000 with all five factors. From the text:
This example utilizes a method of High-Dimensional Design of Experiments (HD-DoE), as previously described in Bukys et al. (2020) Iscience 23:101346. The method employs computerized design geometries to simultaneously test multiple process inputs and offers mathematical modeling of a deep effector/response space. The method allows for finding combinatorial signaling inputs that control a complex process, such as during cell differentiation.
It allows testing of multiple plausible critical process parameters, as such parameters impact output responses, such as gene expression. Because gene expression provides hallmark features of the phenotype of, for example, a human cell, the method can be applied to identify, and understand, which signaling pathways control cell fate. In the current example, the HD-DOE method was applied with the intent to find conditions for induction of midbrain neural progenitor-expressed genes, directly from the pluripotent stem cell state.
To develop the recipe for each stage, the impact of agonists and antagonists of multiple signaling pathways (referred to herein as “effectors”) on the expression of two sets of 53 pre-selected genes after a 3-day treatment was tested and modeled. These effectors are small molecules or proteins that are commonly used during stepwise differentiation of stem cells to specific fates. The choice of the effectors to test was based on current literature on neural induction in the midbrain region of the developing brain and differentiation of stem cells to neural progenitors.
To test the effectors, experiments with at least 8 factors were designed that can assess the response of cells to 48 or more different combinations of effectors in a range of concentrations. To analyze the models, we focused on expression of genes expressed in the midbrain region, including OTX2, DMBX1, FOXA2, LMX1A, and on the absence of GB X2, which is a hindbrain marker. The impact of each effector on gene expression level is defined by a parameter called factor contribution that is calculated for each effector during the modeling.
To identify the recipe of stage 1 of differentiation, cells were treated with various effectors for 3 days and the gene expression of cells was modeled. […] This model consisted of 13 factors including LDN193189, PD173074, BLU9931, Purmorphamine, SC79, MK2206, ZM336372, PD0325901, CHIR99021, XAV939, UCLA-gp130, Tofacitinib and GO 6983.
LDN193189 and CHIR99021 are common in both optimization settings and the rest of the factors except Purmorphamine, have a factor contribution less than 10. Therefore, we focused on impact of addition of Purmorphamine to the original 4 effectors.
This assessment was done through dynamic profile analysis of the model with focus on expression of OTX2, DMBX1, LMX1A and FOXA2 (FIG. 3).
To assess the impact of elimination of each validated factor, we used dynamic profile analysis and compared the expression level of genes of interest in absence of each finalized factor while others are present.
In the stage 1 recipe, each of the five finalized factors were removed while the other four factors were present and the expression levels of OTX2, DMBX1, FOXA2 and LMX1A was assessed compared to the levels in the presence of all five factors (FIGS. 11A-B). […] Expression level of DMBX1 increased in absence of LDN193189, however values of OTX2, FOXA2 and LMX1A decreased.

Setting [4] is: stage 2, first 12-factor experiment, dynamic profile.
The mark [5] stands for this setting: dynamic profile, Purmorphamine added to the original 4 effectors.

In the case of `Cc1cccc(-c2nn(C(=S)Nc3ccccc3)cc2-c2ccnc3ccccc23)n1` [A 83-01], in assay [1], the “FOXA2 expression level in absence of the factor” value (“FOXA2 expression level” below) is 7000 and the “LMX1A expression level in absence of the factor” value is 40,000.

Consider `C[C@H]1COCCN1c1cc(C2(S(=O)(=O)C3CC3)CC2)nc(-c2ccc(NC(=S)NCCO)cc2)n1` [AZD 3147], for which, in assay [2], the “FOXA2 expression level” value is “almost no effect” and the “LMX1A expression level in absence of the factor” value is listed as 2000.

With `Cc1c[nH]c(-c2cnc(NCCNc3ccc(C#N)cn3)nc2-c2ccc(Cl)cc2Cl)n1` [CHIR99021], in assay [1] (setting [4]), the “impact on expression of GBX2” value is recorded as “increases” and the “impact on expression of LMX1A” value is on record as “positive impacts”. Besides, in assay [3], the “LMX1A expression level in absence of the factor” value is recorded as “reduced”, the “FOXA2 expression level” value is “reduced”, the “DMBX1 expression level in absence of the factor” value is recorded as “reduced” and the “OTX2 expression level in absence of the factor” value (“OTX2 expression level in absence” below) is recorded as “reduced”.

Consider `O=C(O)Cc1cccc(OCCCN(Cc2cccc(C(F)(F)F)c2Cl)CC(c2ccccc2)c2ccccc2)c1` [GW3965], for which, in assay [1], the “FOXA2 expression level” value is on record as 17,000 and the “LMX1A expression level in absence of the factor” value was 10,000.

Turning to `c1ccc2c(-c3cnn4cc(-c5ccc(N6CCNCC6)cc5)cnc34)ccnc2c1` [LDN193189], in assay [3], the “LMX1A expression level in absence of the factor” value was “decreased”, the “FOXA2 expression level” value is “decreased”, the “DMBX1 expression level in absence of the factor” value was “increased” and the “OTX2 expression level in absence” value is “decreased”.

On to `NC1(c2ccc(-c3nc4ccn5c(=O)[nH]nc5c4cc3-c3ccccc3)cc2)CCC1` [MK2206], for which, in assay [3], the “LMX1A expression level in absence of the factor” value is on record as “stayed the same”, the “FOXA2 expression level” value is given as “stayed the same”, the “DMBX1 expression level in absence of the factor” value came out at 1500 and the “OTX2 expression level in absence” value is given as 9500. Also, in assay [2], the “impact on expression of GBX2” value is “desirable impact”, the “FOXA2 expression level” value is on record as “reduced” and the “LMX1A expression level in absence of the factor” value is listed as “increasing”.

Consider `O=C(NOC[C@H](O)CO)c1ccc(F)c(F)c1Nc1ccc(I)cc1F` [PD0325901], for which, in assay [3], the “LMX1A expression level in absence of the factor” value came to 500, the “FOXA2 expression level” value is 700 and the “DMBX1 expression level in absence of the factor” value is 900.

Turning to `c1ccc2c(Oc3nc(Nc4ccc(N5CCOCC5)cc4)c4ncn(C5CCCCC5)c4n3)cccc2c1` [Purmorphamine], the “expression level of FOXA2 without addition of the effector” value in assay [1] (dynamic profile analysis, stage 2) is given as 5000. Also, in assay [3] (setting [5]), the DMBX1 expression level is given as approximately 3000, the LMX1A expression level is recorded as approximately 450 and the OTX2 expression level was approximately 11000. Also, in assay [3], the “LMX1A expression level in absence of the factor” value is given as “beneficial”, the “FOXA2 expression level” value is “reduction”, the “DMBX1 expression level in absence of the factor” value is listed as “beneficial” and the “OTX2 expression level in absence” value was “beneficial”.

`C/C(=C\c1ccc(C(=O)O)cc1)c1ccc2c(c1)C(C)(C)CCC2(C)C` [TTNPB]: in assay [1], the “FOXA2 expression level” value amounted to 0 and the “LMX1A expression level in absence of the factor” value is on record as 15,000.

For the molecule `COc1cccc(Oc2cccc3nc(Nc4ccc(C(C)C)cc4)nc(N)c23)c1` [Yhhu 3792], the “impact on expression of GBX2” value in assay [2] is “positive effect”.

On to FGF8b, for which the factor contribution is 12.8 in assay [2] (model optimized for maximum expression of FOXA2) and 16.9 in assay [2] (model optimized for maximum expression of LMX1A).

B1: BMP7 (protein, UniProt P18075 293-431, looked up)
Bone morphogenetic protein 7: STGSKQRSQNRSKTPKNQEALRMANVAENSSSDQRQACKKHELYVSFRDLGWQDWIIAPEGYAAYYCEGECAFPLNSYMNATNHAIVQTLVHFINPETVPKPCCAPTQLNAISVLYFDDSSNVILKKYRNMVVRACGCH
notes: BMP pathway agonist
Take B1: in assay [2], the “FOXA2 expression level” value came to 0 and the “LMX1A expression level in absence of the factor” value is “increasing”.
